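96-well plates; 48 h exposure; 5 concentrations. Endpoints by linear interpolation between flanking doses. Not reached: highest tested concentration assigned. GI50 = concentration required for 50% inhibition of growth. The concentration for full growth arrest is given as TGI.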
Key:
Assay in all cases: NCI tumour cell line growth inhibition, 48 h
[1] = tested on: CAKI-1 renal
[2] = tested on: SK-OV-3 ovarian
[3] = tested on: HL-60(TB) leukemia
[4] = tested on: NCI-H226 lung
[5] = tested on: SF-295 CNS
[6] = tested on: OVCAR-4 ovarian
[7] = tested on: U251 CNS
[8] = tested on: M14 melanoma
[9] = tested on: CCRF-CEM leukemia
[10] = tested on: UACC-257 melanoma

SMILES | TGI [1] [µM] | TGI [2] [µM] | TGI [3] [µM] | TGI [4] [µM] | TGI [5] [µM] | TGI [6] [µM] | TGI [7] [µM] | TGI [8] [µM] | TGI [9] [µM] | GI50 [1] [µM] | GI50 [3] [µM] | GI50 [4] [µM] | GI50 [5] [µM] | GI50 [6] [µM] | GI50 [7] [µM] | GI50 [8] [µM] | GI50 [10] [µM] | TGI [10] [µM] | GI50 [2] [µM] | GI50 [9] [µM]
Brc1ccccc1C1SCc2nc3ccccc3n21 (centres undefined) | 61.2 | 56.7 | 34.1 | 31.6 | 82.9 | 75.9 | 29.7 | 31.4 | > 100 |  |  |  |  |  |  |  |  |  |  | 
CC(=O)[C@@]12O[C@@H]1CC1C3CCC4=CC(O)CCC4(C)C3CCC12C (some centres undefined) | > 100 |  | > 100 | > 100 | 56.5 | > 100 | 41.3 | > 100 |  | > 100 | > 100 | 75.9 | 12.2 | 23.2 | 19.1 | 95.9 | > 100 | > 100 |  | 
C=C(Br)C(C)(Br)CCC(Br)C(C)(C)Cl (centres undefined) |  | 60.4 | 16.2 | 81.3 | 32.7 | 34.4 | 29.7 | 39 | 13.4 |  |  |  |  |  |  |  |  | 37.4 |  | 
O=C1NCC2(CCN(CCCC3(c4ccc(F)cc4)OCCO3)CC2)N1c1ccccc1 | > 100 |  | > 100 | > 100 | > 100 | > 100 | > 100 | > 100 | > 100 |  |  |  |  |  |  |  |  | > 100 |  | 
COc1ncnc(NS(=O)(=O)c2ccc(N=C3C(=O)N(CN4CCN(c5c(F)cc6c(=O)c(C(=O)O)cn(C7CC7)c6c5OC)CC4C)c4ccc(Cl)cc43)cc2)c1OC (centres undefined) | 26.1 | > 50 | > 50 | > 50 | > 50 | > 50 | 45.2 | > 50 |  | 6.44 | 14 | 27.1 | 10.7 | 37.7 | 9.61 | 21.1 | 6.32 | 14.7 | 37.7 | 
CCOC(=O)NC(=O)c1cn(CCCO)c(=O)[nH]c1=O | > 100 | > 100 |  | > 100 | > 100 | > 100 | > 100 | > 100 | > 100 |  |  |  |  |  |  |  |  | > 100 |  | 
COc1ccc([C@H]2[C@@H](F)C(=O)N2c2cc(OC)c(OC)c(OC)c2)cc1F |  | > 100 | 0.399 | > 100 | > 100 | > 100 | > 100 |  | > 100 |  | 0.0805 | 22.2 | 0.0535 | 0.966 | 0.236 |  | > 100 | > 100 | 3.45 | 0.0471
Cc1ccc(NC(=O)c2cc3cc(N=Nc4ccccc4C(=O)O)ccc3oc2=O)cc1 |  | > 100 | 69.4 | > 100 | > 100 |  | > 100 | > 100 | > 100 |  |  |  |  |  |  |  |  | 59.4 |  | 
CCOC(=O)C(=C=C=C(c1ccccc1)c1ccccc1)C(=O)OCC |  | 50.3 | 38.5 | 37.6 | 30.6 | 33.7 | 33.2 | 41.5 | 15.1 |  |  |  |  |  |  |  |  | 33.4 |  | 
ClCc1cccc(Cn2cnc3ncnc(Cl)c32)c1 | 4.04 | 25.5 |  | 8.67 | 19 | 16 | 3.95 | 14.6 | 22.2 | 2.12 |  | 3.19 | 6.35 | 4.17 | 1.97 | 3.05 | 1.96 | 5.52 | 10.8 | 6.91
O=[N+]([O-])C(/C=C(\Cl)n1nnc2ccccc21)=C(/Cl)n1nnc2ccccc21 | > 100 | > 100 |  | > 100 | > 100 | > 100 | > 100 | > 100 | > 100 |  |  |  |  |  |  |  |  | > 100 |  | 
Cc1ccc(S(=O)(=O)Nc2ccccc2C(=O)c2ccc(C)c(C)c2)cc1 | > 100 | > 100 |  | > 100 | > 100 | > 100 | > 100 | > 100 |  |  |  |  |  |  |  |  |  | > 100 |  | 
CC1(C)C2CCC(=O)C1CC2 (centres undefined) | > 100 | > 100 | > 100 | > 100 | > 100 |  | > 100 | > 100 | > 100 |  |  |  |  |  |  |  |  | > 100 |  | 
Cc1cc(-c2ccc3nc(C4CCOCC4)n(CCOC(F)(F)F)c3c2)cn(C)c1=O |  | 1.25 | 0.197 | 8.47 |  |  |  |  | > 100 |  | 0.0247 |  | 0.748 |  | 1.02 |  |  |  |  | 1.71
COC(OC)C(C)CC(=O)N(C)C (centres undefined) |  | > 100 | > 100 | > 100 | > 100 | > 100 | > 100 | > 100 | > 100 |  |  |  |  |  |  |  |  |  |  | 
Cc1cccc(NC(=O)Cn2cnc3sc(C(=O)OC(C)C)c(C)c3c2=O)c1 | > 50 | > 50 | > 50 |  | > 50 |  | 31 | > 50 | > 50 | 45.9 | > 50 |  | > 50 |  | 12.6 | > 50 | 19 | > 50 | 26.8 | > 50
CC(=O)OC1COC(n2ccc3cc(Br)c([N+](=O)[O-])cc32)C(OC(C)=O)C1OC(C)=O (centres undefined) | > 100 | > 100 |  | 43.9 | 66.7 |  | 56 | > 100 | 81.7 |  |  |  |  |  |  |  |  | 52 |  | 
C/C(=N\NC(=S)NC(CCC(=O)O)C(=O)O)c1ccccn1 (centres undefined) |  | > 100 | > 100 | > 100 | > 100 | > 100 | > 100 | > 100 | > 100 |  |  |  |  |  |  |  |  | > 100 |  | 
COc1ccc(-c2nnc(COc3ccc(C(=O)/C=C/c4ccco4)cc3)o2)cc1 | 19.7 | 24.6 | 7.38 | 16.8 | 14.7 | 26.6 | 3.08 | 14.6 |  | 6.11 | 2.65 | 4 | 3.75 | 12.8 | 1.62 | 4.03 | 2.94 | 10.5 | 12.2 | 
